This note sets out measurements from patent US12522590B2, “Brefeldin a derivatives, preparation method and use thereof” (OCEAN UNIVERSITY OF CHINA, priority 2019, dated 2026).

Data set [1] concerns human lung cancer cells A549. The experiment in a line: Cell proliferation assay (CCK-8). Format: cell-based. As to conditions: Homo sapiens, A549, 72 h. The source says:
(§1) CCK-8 method: The CCK-8 method is a highly sensitive, non-radioactive colorimetric assay for the determination of the number of viable cells in cell proliferation or cytotoxicity assays. The orange formazan dye produced by the bioreduction of CCK-8 by intracellular dehydrogenase is soluble in the cell culture medium, and the amount of formazan dye produced is proportional to the number of living cells. The kit used in this method is the tetrazolium salt-WST-8 (2-(2-methoxy-4-nitrophenyl)-3-(4-nitrophenyl)-5-(2,4-disulfophenyl)-2H-tetrazolium monosodium salt) developed by Dojindo Chemical Research Institute (Dojindo), which is capable of being reduced to a water-soluble formazan dye in the presence of the electronic carrier 1-Methoxy PMS.
(§2) Human cervical cancer cells Hela, pancreatic cancer cells PANC-1, esophageal cancer cells Eca-109, human leukemia cells K562, human lung cancer cells A549, human liver cancer cells HepG2, human gastric cancer cells MKN-45, human breast cancer cells MCF7 were cultured in DMEM medium containing 10% FBS (fetal bovine serum), 100 U/mL penicillin and 100 μg/ml streptomycin. Hepatocellular carcinoma cells Bel-7402 were cultured in RPMI-1640 medium containing 10% FBS (fetal bovine serum), 100 U/ml penicillin and 100 μg/ml streptomycin. All cells were placed in a cell culture incubator at 37° C. with 5% CO2. Cells fluid was changed every 3-5 days, and after 80% cell fusion, trypsin digestion and passaging were performed to keep the cells in good logarithmic growth phase.
(§3) All the samples to be tested were dissolved in DMSO.
(§4) Cells in logarithmic growth phase were inoculated in 96-well plates with 5000 cells/well respectively, and after 24 h of incubation, samples were added (final concentrations as shown in the table), and biplicate wells were set up for each sample. The amount of solvent of DMSO was not higher than 2‰. After 72 h, 10 μL of CCK-8 solution was added to each well and incubated for 1.5˜3 h at 37° C. The OD value at 450 nm was measured on an plate reader. Inhibition rate (%)=(1−[(OD450 dosed well−OD450 blank well)/(OD450 control well−OD450 blank well)])×100%
(§5) The fitted IC50 values were calculated using the log (inhibitor) vs. response—Variable slop analysis method in GraphPad Prism software.

The subject of data set [2] is human breast cancer cells MCF7. Put plainly: Cell proliferation assay (CCK-8). Format: cell-based. Particulars: Homo sapiens, MCF7, 72 h.
Description: as §1, §2, §3, §4, §5

The subject of data set [3] is human liver cancer cells HepG2. Put plainly: Cell proliferation assay (CCK-8). The class given is cell-based. Particulars: Homo sapiens, HepG2, 72 h.
Description: as §1, §2, §3, §4, §5

Data set [4] has as its system Human cervical cancer cells Hela. The experiment in a line: Cell proliferation assay (CCK-8). The class given is cell-based. Particulars: Homo sapiens, 72 h.
Description: as §1, §2, §3, §4, §5

For data set [5], the system named is human gastric cancer cells MKN-45. Put plainly: Cell proliferation assay (CCK-8). The class given is cell-based. Particulars: Homo sapiens, MKN-45, 72 h.
Description: as §1, §2, §3, §4, §5

The subject of data set [6] is human leukemia cells K562. Put plainly: Cell proliferation assay (CCK-8). The class given is cell-based. Particulars: Homo sapiens, K562, 72 h.
Description: as §1, §2, §3, §4, §5

In data set [7] the test system is esophageal cancer cells Eca-109. The experiment in a line: Cell proliferation assay (CCK-8). Format: cell-based, human. Particulars: Homo sapiens, Eca-109, 72 h.
Description: as §1, §2, §3, §4, §5

The subject of data set [8] is pancreatic cancer cells PANC-1. The experiment in a line: Cell proliferation assay (CCK-8). Particulars: Homo sapiens, PANC-1, 72 h. The class given is cell-based, human.
Description: as §1, §2, §3, §4, §5

Data set [9] is described as follows: Solubility test (shake 37° C., 24 h, HPLC). Particulars: thermodynamic from solid, x ± s. The class given is physicochemical. The procedure: The term “solubility” refers to the mass of solute dissolved when a solid substance reaches saturation state in 100 g solvent at a certain temperature. Solubility test refer to the following references: ZHU Shang-bin, et al. Preparation, characterization, and physicochemical properties of arbutin phospholipid complex[J]. Chinese Traditional and Herbal Drugs. 2020, 1-10.
Methods: Excess BFA and the compounds disclosed herein were added to 10 mL of three solvents, methanol, acetone and 5% DMSO+95% H2O, respectively, and shaken on a shaker at 37° C. at 100 r/min for 24 h. After 24 h, the samples were centrifuged at 15 000 r/min for 15 min to remove the undissolved compounds. The supernatant was filtered using a 0.45 μm membrane filter. The supernatant was appropriately diluted with methanol and contents of the compounds were determined by HPLC method to calculate the solubility.

Setting [10] is: aqueous with cosolvent or surfactant or cyclodextrin, 5% DMSO + 95% H2O, n = 3, read-out: Solubility, 5% DMSO + 95% H2O.
The mark [11] stands for this setting: organic solvent or mixture, acetone, n = 3, read-out: Solubility, Acetone.
Where [12] appears, read: organic solvent or mixture, methanol, n = 3, read-out: Solubility, Methanol.

Converted amounts (≈) assume the structure as drawn. Where two headings read alike, the source gives them in different places.

For the compound `C[C@H]1CCC/C=C/[C@@H]2C[C@H](OC(=O)OCc3ccc(N4CCCCC4)nc3)C[C@H]2[C@H](O)/C=C/C(=O)O1` [Compound 8], the IC50 fell in the range of 0.1 to 1 µM in [1]; 0.1 to 1 µM in [2]; 0.1 to 1 µM in data set [3]; 1 to 10 µM in [4]; 1 to 10 µM in [5]; 0.1 to 1 µM in data set [6]. For the same compound, the IC50 in data set [7] and in data set [8] was 0.1 to 1 µM each time.

Regarding `C[C@H]1CCC/C=C/[C@@H]2C[C@H](OC(=O)OCCc3cccnc3)C[C@H]2[C@H](O)/C=C/C(=O)O1` [Compound 9, BFA-7-(pyridine-3-ylethyl)carbonate], the IC50 in data set [1] was < 0.1 µM; in data set [2], 0.1 to 1 µM; in data set [3], 0.1 to 1 µM; in data set [4], < 0.1 µM; in data set [5], 0.1 to 1 µM; in [6], 0.1 to 1 µM. Also, the IC50 in data set [7] and in [8] was 0.1 to 1 µM in each case. For the same compound, the solubility at 24 h stood at 2700 ± 770 µg/mL in [9] (setting [10]), 68800 ± 2530 µg/mL (≈ 160 mM) in [9] (setting [11]) and 69000 ± 1810 µg/mL (≈ 161 mM) in [9] (setting [12]).

On to `C[C@H]1CCC/C=C/[C@@H]2C[C@H](OC(=O)OCCCc3cccnc3)C[C@H]2[C@H](O)/C=C/C(=O)O1` [Compound 10], for which the IC50 in data set [1], in [2], in data set [3], in [4], in data set [5] and in [6] was 0.1 to 1 µM in each case. Moreover, the figures for the IC50 in data set [7] and in data set [8] were < 0.1 µM and 0.1 to 1 µM, respectively.

Regarding `C[C@H]1CCC/C=C/[C@@H]2C[C@H](OC(=O)OCc3cncc4ccccc34)C[C@H]2[C@H](O)/C=C/C(=O)O1` [Compound 12], the IC50 in data set [1] was 0.1 to 1 µM; in [2] it was 0.1 to 1 µM; in data set [3], < 0.1 µM; in data set [4], 0.1 to 1 µM; in data set [5] it was 0.1 to 1 µM; in data set [6], 0.1 to 1 µM. Moreover, the concentration for half-maximal inhibition (IC50) in data set [7] and in data set [8] was 0.1 to 1 µM in each case.

On to `C[C@H]1CCC/C=C/[C@@H]2C[C@H](OC(=O)OCCc3ccccc3)C[C@H]2[C@H](O)/C=C/C(=O)O1` [Compound A, reference compound], for which the IC50 is 0.1 to 1 µM in data set [1]; 1 to 10 µM in [2]; 0.1 to 1 µM in data set [3]; 1 to 10 µM in [4]; 1 to 10 µM in data set [5]; 0.1 to 1 µM in data set [6]. Moreover, the IC50 in data set [7] was in the range of 0.1 to 1 µM; in data set [8], 1 to 10 µM. Further, the solubility at 24 h in data set [9] (setting [10]) is 250 ± 130 µg/mL; in data set [9] (setting [11]) it was 9360 ± 1260 µg/mL (≈ 21.8 mM); in [9] (setting [12]), 9930 ± 1210 µg/mL (≈ 23.2 mM).

With `C[C@H]1CCC/C=C/[C@@H]2C[C@H](OC(=O)OCc3cccc(F)c3)C[C@H]2[C@H](O)/C=C/C(=O)O1` [Compound B, reference compound], the IC50 in [1] fell in the range of 1 to 10 µM; in data set [2], 0.1 to 1 µM; in data set [3], 0.1 to 1 µM; in data set [4] it was 1 to 10 µM; in data set [5], 1 to 10 µM; in [6], 1 to 10 µM. Besides, the IC50 in [7] and in [8] was 0.1 to 1 µM each time. Also, the solubility at 24 h is 260 ± 160 µg/mL in data set [9] (setting [10]), 9550 ± 1230 µg/mL (≈ 22.1 mM) in data set [9] (setting [11]) and 9760 ± 1210 µg/mL (≈ 22.6 mM) in data set [9] (setting [12]).

`COC(=O)O[C@@H]1C[C@H]2[C@H](O)/C=C/C(=O)O[C@@H](C)CCC/C=C/[C@@H]2C1` [Compound C, reference compound]: the IC50 is 0.1 to 1 µM in data set [1]; 0.1 to 1 µM in data set [2]; 0.1 to 1 µM in data set [3]; 1 to 10 µM in data set [4]; 1 to 10 µM in [5]; 0.1 to 1 µM in data set [6]. Also, the IC50 in data set [7] is 1 to 10 µM; in data set [8], 0.1 to 1 µM. Moreover, the solubility at 24 h in data set [9] (setting [10]) came out at 250 ± 230 µg/mL; in data set [9] (setting [11]), 9260 ± 1130 µg/mL (≈ 27.4 mM); in data set [9] (setting [12]), 9440 ± 1510 µg/mL (≈ 27.9 mM).

One may read the IC50 as the midpoint of a concentration-inhibition curve. What is called solubility is the concentration that dissolves in the medium under given conditions.
